{"source": "patent US20240050486A1", "about": "“METHODS OF GENERATING CORTICAL EXCITATORY NEURONS” (Memorial Sloan-Kettering Cancer Center, priority 2021, published 2024)", "origin": "cited, not measured here", "key": {"[1]": {"tested_on": "WNT pathway (Porcupine)", "details": "at the level of the pathway activator Porcupine; read-out: IC50 WNT pathway inhibition"}, "[2]": {"tested_on": "SW480 cells"}}, "data": [{"smiles": "Cc1ccc2nc(NC(=O)CSc3nc4c(c(=O)n3-c3ccccc3)SCC4)sc2c1", "note": "[IWP-2, N-(6-methyl-1,3-benzothiazol-2-yl)-2-[(4-oxo-3-phenyl-6,7-dihydrothieno[3,2-d]pyrimidin-2-yl)thio]acetamide]", "values": [{"measurement": "IC50", "setting": "[1]", "value": 27, "unit": "nM"}]}, {"smiles": "Oc1nc(-c2ccc(C(F)(F)F)cc2)nc2c1CSCC2", "note": "[XAV939]", "values": [{"measurement": "degradation of β-catenin", "setting": "[2]", "value": "promotes the degradation of β-catenin"}, {"measurement": "protein levels of the axin-GSK3β complex", "setting": "[2]", "value": "increases the protein levels of the axin-GSK3β complex"}]}]}
